Assay results from patent US8952008B2, “Chemical compounds” (Pfizer Limited, priority 2012, dated 2015).
pKi: −log10 of the molar value.

target: GABRA1-GABRB3-GABRG2 chloride currents in HEK cells (Homo sapiens (Human), UniProt P14867+P18507); test: QPatch electrophysiological recording, % enhancement of GABA current (α1 PAM); format: cell-based; details: approximately EC10 GABA, −60 mV, whole-cell patch clamp
Description: (§1) Cell suspension containing HEK cells expressing GABRA2-GABRB2-GABRG2 was placed on the QPatch instrument in serum-free medium into the instrument's cell stirrer. The instrument washed the cells once using extracellular buffer and then dispensed them into the QPlate HT measurement plate at a concentration of 3-4-e6/ml. […] All recordings were made at room temperature (22-24° C.).
(§2) Current records were acquired at 1 KHz and filtered at 0.3 KHz using the Bessel filter. Series resistance compensation was set to 80% in the QPatch software.
(§3) All compounds were dissolved in dimethyl sulfoxide to make 30 mM or 10 mM stock solutions, which were then diluted to 1000 times the desired final concentration in dimethyl sulfoxide. These were diluted into extracellular solution to attain the final concentrations desired. […] This concentration of dimethyl sulfoxide was present in all samples.
(§4) Currents were recorded at −60 mV, using an approximately EC10 concentration of gamma-aminobutyric acid (GABA). This dose of gamma-aminobutyric acid was applied for 6 seconds and washed off using extracellular buffer as an unrecorded application using the pipetting system of the QPatch instrument. The same dose of gamma-aminobutyric acid was then applied for 9 seconds, then the test compound was co-applied with this dose of gamma-aminobutyric acid for 15 seconds, and washed off using the extracellular solution using the pipetting system of the QPatch instrument.
(§5) Compound effect (% enhancement of gamma-aminobutyric acid current) was calculated using the following formula: [((peak modulator current amplitude-leak)−(GABA current amplitude-leak))/(GABA current amplitude-leak)]*100, where ‘leak’ is leak current at −60 mV, ‘peak modulator current amplitude’ is the current elicited by co-application of gamma-aminobutyric acid and test compound, and ‘GABA current amplitude’ is the current elicited by application of gamma-aminobutyric acid alone.
The ability of the compounds of the formula (I) to modulate the GABA channels expressing the al subunit (or GABRA1) can also be measured using an assay analogous to that described above but replacing the GABRA2-GABRB2-GABRG2 gene construct with the GABRA1-GABRB3-GABRG2 gene construct. All other conditions remain the same including the same cell line and conditions for cell growth.

Chain of GABRA1-GABRB3-GABRG2 chloride currents in HEK cells (P14867 28-456): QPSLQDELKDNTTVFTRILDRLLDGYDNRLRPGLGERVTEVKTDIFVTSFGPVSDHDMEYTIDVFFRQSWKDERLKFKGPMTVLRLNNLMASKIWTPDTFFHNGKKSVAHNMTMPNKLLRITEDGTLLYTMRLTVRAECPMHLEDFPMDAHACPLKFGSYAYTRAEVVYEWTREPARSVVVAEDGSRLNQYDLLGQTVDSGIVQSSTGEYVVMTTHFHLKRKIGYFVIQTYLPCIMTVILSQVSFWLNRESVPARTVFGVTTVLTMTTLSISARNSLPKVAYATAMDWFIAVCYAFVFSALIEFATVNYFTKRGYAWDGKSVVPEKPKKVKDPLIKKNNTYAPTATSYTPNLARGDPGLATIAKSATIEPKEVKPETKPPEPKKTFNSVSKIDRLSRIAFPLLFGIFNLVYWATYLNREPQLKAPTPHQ
Chain of GABRA1-GABRB3-GABRG2 chloride currents in HEK cells (P28472 26-473 partner): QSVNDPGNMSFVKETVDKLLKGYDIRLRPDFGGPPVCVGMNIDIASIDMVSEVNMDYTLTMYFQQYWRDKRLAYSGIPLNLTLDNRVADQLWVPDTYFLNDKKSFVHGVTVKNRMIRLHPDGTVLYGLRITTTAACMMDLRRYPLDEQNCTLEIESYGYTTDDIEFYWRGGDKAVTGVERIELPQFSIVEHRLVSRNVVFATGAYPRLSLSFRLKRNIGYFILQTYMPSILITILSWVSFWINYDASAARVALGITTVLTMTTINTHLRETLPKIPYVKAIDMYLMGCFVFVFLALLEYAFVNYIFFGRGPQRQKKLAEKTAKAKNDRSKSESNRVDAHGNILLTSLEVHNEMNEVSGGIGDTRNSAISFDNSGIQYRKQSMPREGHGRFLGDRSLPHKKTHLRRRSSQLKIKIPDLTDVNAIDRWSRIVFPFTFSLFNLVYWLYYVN
Chain of GABRA1-GABRB3-GABRG2 chloride currents in HEK cells (P18507 40-475): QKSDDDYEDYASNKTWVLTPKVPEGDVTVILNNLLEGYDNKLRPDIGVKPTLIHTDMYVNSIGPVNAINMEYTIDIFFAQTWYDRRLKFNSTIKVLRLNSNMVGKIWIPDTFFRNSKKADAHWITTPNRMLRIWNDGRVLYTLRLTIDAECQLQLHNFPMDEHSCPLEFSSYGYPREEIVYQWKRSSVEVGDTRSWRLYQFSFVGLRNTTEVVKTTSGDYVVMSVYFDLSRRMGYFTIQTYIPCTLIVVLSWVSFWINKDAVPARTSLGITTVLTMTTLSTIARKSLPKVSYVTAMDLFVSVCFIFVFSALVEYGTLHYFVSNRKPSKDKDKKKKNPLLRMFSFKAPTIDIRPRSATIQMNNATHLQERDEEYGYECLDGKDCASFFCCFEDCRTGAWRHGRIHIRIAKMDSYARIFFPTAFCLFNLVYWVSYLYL

Molecule	α1 PAM (%)
CCn1cnc2c(-c3ccc(F)c(-c4ccc(S(N)(=O)=O)cc4)c3)cnnc21 [Example 3, 5′-(7-Ethyl-7H-imidazo[4,5-c]pyridazin-4-yl)-2′-fluorobiphenyl-4-sulfonamide]	−51.1
CCn1cnc2c(-c3ccc(F)c(-c4ccc(S(=O)(=O)CC)cc4OC)c3)cnnc21 [Example 4, 7-Ethyl-4-[4′-(ethylsulfonyl)-6-fluoro-2′-methoxybiphenyl-3-yl]-7H-imidazo[4,5-c]pyridazine]	18.1
CCn1cnc2c(-c3ccc(F)c(-c4ccc(S(=O)(=O)NC)cc4)c3)cnnc21 [Example 8, 5′-(7-Ethyl-7H-imidazo[4,5-c]pyridazin-4-yl)-2′-fluoro-N-methylbiphenyl-4-sulfonamide]	−55.1
CCn1cnc2c(-c3ccc(F)c(-c4ccc(S(C)(=O)=O)cc4OC)c3)cnnc21 [Example 12, 7-Ethyl-4-(6-fluoro-2′-methoxy-4′-(methylsulfonyl)-[1,1′-biphenyl]-3-yl)-7H-imidazo[4,5-c]pyridazine]	3.66
CCn1cnc2c(-c3ccc(F)c(-c4ccc(S(=O)(=O)CC)cc4C(F)F)c3)cnnc21 [Example 14, 4-(2′-(Difluoromethyl)-4′-(ethylsulfonyl)-6-fluoro-[1,1′-biphenyl]-3-yl)-7-ethyl-7H-imidazo[4,5-c]pyridazine]	13.3

target: GABRA2-GABRB2-GABRG2 chloride currents in HEK cells (Homo sapiens (Human), UniProt P18507+P47869); test: QPatch electrophysiological recording, % enhancement of GABA current (α2 PAM); format: cell-based; details: approximately EC10 GABA, −60 mV, whole-cell patch clamp
Sequence (P47869 29-451): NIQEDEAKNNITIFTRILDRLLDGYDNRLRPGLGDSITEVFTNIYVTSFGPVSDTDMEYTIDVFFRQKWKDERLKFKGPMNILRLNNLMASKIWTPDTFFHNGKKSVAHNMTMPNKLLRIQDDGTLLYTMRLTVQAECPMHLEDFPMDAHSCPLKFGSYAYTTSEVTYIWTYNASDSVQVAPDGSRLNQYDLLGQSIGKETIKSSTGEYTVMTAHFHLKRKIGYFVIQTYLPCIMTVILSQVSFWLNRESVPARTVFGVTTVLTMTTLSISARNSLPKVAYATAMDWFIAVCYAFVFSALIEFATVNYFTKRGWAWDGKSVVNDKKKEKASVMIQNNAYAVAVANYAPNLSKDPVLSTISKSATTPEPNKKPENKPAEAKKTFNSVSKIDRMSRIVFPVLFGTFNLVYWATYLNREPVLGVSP
Sequence (P47870 26-512 partner): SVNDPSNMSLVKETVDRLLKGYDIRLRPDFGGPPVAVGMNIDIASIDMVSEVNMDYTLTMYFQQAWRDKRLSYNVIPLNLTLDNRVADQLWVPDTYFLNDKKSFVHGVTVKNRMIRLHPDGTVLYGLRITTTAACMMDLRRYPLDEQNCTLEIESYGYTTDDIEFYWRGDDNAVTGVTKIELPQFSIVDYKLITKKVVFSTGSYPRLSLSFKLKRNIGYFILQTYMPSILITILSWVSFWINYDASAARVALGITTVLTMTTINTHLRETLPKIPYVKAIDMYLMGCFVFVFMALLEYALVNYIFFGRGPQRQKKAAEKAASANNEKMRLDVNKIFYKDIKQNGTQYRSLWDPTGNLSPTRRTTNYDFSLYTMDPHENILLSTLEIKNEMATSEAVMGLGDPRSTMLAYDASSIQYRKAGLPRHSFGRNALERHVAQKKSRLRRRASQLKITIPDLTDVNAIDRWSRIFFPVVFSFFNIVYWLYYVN
Sequence (P18507 40-475): as the sequence (P18507 40-475) above
Description: Human Embryonic Kidney (HEK) cells were transfected with a GABRA2-GABRB2-GABRG2 construct using standard techniques.
For QPatch electrophysiology testing, cells were harvested from flasks by enzymatic dissociation and resuspended in serum-free medium. Cells were typically used for electrophysiological experiments within 24 to 72 hours after splitting.
as §1, §2, §3, §4, §5

Molecule	α2 PAM (%)
CCn1cnc2c(-c3ccc(F)c(-c4ccc(S(N)(=O)=O)cc4)c3)cnnc21 [Example 3, 5′-(7-Ethyl-7H-imidazo[4,5-c]pyridazin-4-yl)-2′-fluorobiphenyl-4-sulfonamide]	27.6
CCn1cnc2c(-c3ccc(F)c(-c4ccc(S(=O)(=O)NC)cc4)c3)cnnc21 [Example 8, 5′-(7-Ethyl-7H-imidazo[4,5-c]pyridazin-4-yl)-2′-fluoro-N-methylbiphenyl-4-sulfonamide]	19.4
CCn1cnc2c(-c3ccc(F)c(-c4ccc(S(C)(=O)=O)cc4)c3)cnnc21 [Example 9, 7-Ethyl-4-[6-fluoro-4′-(methylsulfonyl)biphenyl-3-yl]-7H-imidazo[4,5-c]pyridazine]	38.9
CCn1cnc2c(-c3ccc(F)c(-c4ccc(S(C)(=O)=O)cc4OC)c3)cnnc21 [Example 12, 7-Ethyl-4-(6-fluoro-2′-methoxy-4′-(methylsulfonyl)-[1,1′-biphenyl]-3-yl)-7H-imidazo[4,5-c]pyridazine]	39.1
CCn1cnc2c(-c3ccc(F)c(-c4ccc(S(=O)(=O)CC)cc4C(F)F)c3)cnnc21 [Example 14, 4-(2′-(Difluoromethyl)-4′-(ethylsulfonyl)-6-fluoro-[1,1′-biphenyl]-3-yl)-7-ethyl-7H-imidazo[4,5-c]pyridazine]	58.0
CCn1cnc2c(-c3ccc(F)c(-c4ccc(S(=O)(=O)CC)cc4F)c3)cnnc21 [Example 15, 4-(4′-Ethanesulfonyl-6,2′-difluoro-biphenyl-3-yl)-7-ethyl-7H-imidazo[4,5-c]pyridazine]	39.4
NS(=O)(=O)c1ccc(-c2cc(-c3cnnc4c3ncn4C3CC3)ccc2F)cc1 [Example 20, 5′-(7-Cyclopropyl-7H-imidazo[4,5-c]pyridazin-4-yl)-2′-fluoro-[1,1′-biphenyl]-4-sulfonamide]	36.3
CCn1cnc2c(-c3ccc(Cl)c(-c4ccc(S(=O)(=O)CC)cc4OC)c3)cnnc21 [Example 45, 4-(6-Chloro-4′-(ethylsulfonyl)-2′-methoxy-[1,1′-biphenyl]-3-yl)-7-ethyl-7H-imidazo[4,5-c]pyridazine]	61.1
CCn1cnc2c(-c3ccc(C#N)c(-c4ccc(S(=O)(=O)CC)cc4OC)c3)cnnc21 [Example 47, 5-(7-Ethyl-7H-imidazo[4,5-c]pyridazin-4-yl)-4′-(ethylsulfonyl)-2′-methoxy-[1,1′-biphenyl]-2-carbonitrile]	68.7
CCn1cnc2c(-c3ccc(F)c(-c4ccc(S(=O)(=O)CC)cc4)c3)cnnc21 [Example 49, 7-Ethyl-4-[4′-(ethylsulfonyl)-6-fluorobiphenyl-3-yl]-7H-imidazo[4,5-d]pyridazine]	83.9

target: human recombinant GABA A receptor containing the alpha2, beta2, and gamma3 subunits (Homo sapiens, UniProt P47869+Q99928); test: Radioligand competition binding assay with [3H]Ro-15-1788 (Flumazenil); details: not given;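 further: membranes from HEK cells expressing the receptor, incubated with radioligand to equilibrium, filter-bound radioactivity counted, Ki reported as geometric mean of replicate runs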

pKi	Molecule
6.97	CCn1cnc2c(-c3ccc(F)c(-c4ccc(S(=O)(=O)C(C)C)cc4C#N)c3)cnnc21 [Example 5, 5′-(7-Ethyl-7H-imidazo[4,5-c]pyridazin-4-yl)-2′-fluoro-4-(isopropylsulfonyl)-[1,1′-biphenyl]-2-carbonitrile]
7.25	CCn1cnc2c(-c3cccc(-c4ccc(S(C)(=O)=O)cc4)c3)cnnc21 [Example 16, 7-Ethyl-4-[4′-(methylsulfonyl)biphenyl-3-yl]-7H-imidazo[4,5-c]pyridazine]
6.53	CC(C)S(=O)(=O)c1ccc(-c2cc(-c3cnnc4c3ncn4C3CC3)ccc2F)c(C#N)c1 [Example 18]
7.72	NS(=O)(=O)c1ccc(-c2cc(-c3cnnc4c3ncn4C3CC3)ccc2F)cc1 [Example 20, 5′-(7-Cyclopropyl-7H-imidazo[4,5-c]pyridazin-4-yl)-2′-fluoro-[1,1′-biphenyl]-4-sulfonamide]
7.17	CCS(=O)(=O)c1ccc(-c2cc(-c3cnnc4c3ncn4C3CC3)ccc2F)c(F)c1 [Example 22, 7-Cyclopropyl-4-(4′-(ethylsulfonyl)-2′,6-difluoro-[1,1′-biphenyl]-3-yl)-7H-imidazo[4,5-c]pyridazine]
6.83	CCS(=O)(=O)c1ccc(-c2cc(-c3cnnc4c3ncn4C3CCC3)ccc2F)c(F)c1 [Example 26, 7-Cyclobutyl-4-(4′-(ethylsulfonyl)-2′,6-difluoro-[1,1′-biphenyl]-3-yl)-7H-imidazo[4,5-c]pyridazine]
7.13	CCS(=O)(=O)c1ccc(-c2cc(-c3cnnc4c3ncn4C3CCC3)ccc2F)cc1 [Example 28, 7-Cyclobutyl-4-[4′-(ethylsulfonyl)-6-fluorobiphenyl-3-yl]-7H-imidazol[4,5-c]pyridazine]
7.41	CC(C)n1cnc2c(-c3ccc(F)c(-c4ccc(S(=O)(=O)C(C)C)cc4C#N)c3)cnnc21 [Example 35, 2′-Fluoro-5′-(7-isopropyl-7H-imidazo[4,5-c]pyridazin-4-yl)-4-(isopropylsulfonyl)-[1,1′-biphenyl]-2-carbonitrile]
7.84	CCS(=O)(=O)c1ccc(-c2cc(-c3cnnc4c3ncn4C(C)C)ccc2F)c(Cl)c1 [Example 39, 4-(2′-Chloro-4′-(ethylsulfonyl)-6-fluoro-[1,1′-biphenyl]-3-yl)-7-isopropyl-7H-imidazo[4,5-c]pyridazine]
6.93	CCS(=O)(=O)c1ccc(-c2cc(-c3cnnc4c3ncn4C3CCCC3)ccc2F)c(OC)c1 [Example 43, 7-Cyclopentyl-4-(4′-(ethylsulfonyl)-6-fluoro-2′-methoxy-[1,1′-biphenyl]-3-yl)-7H-imidazo[4,5-c]pyridazine]
6.17	CCn1cnc2c(-c3ccc(OC)c(-c4ccc(S(=O)(=O)CC)cc4F)c3)cnnc21 [Example 44, 7-Ethyl-4-(4′-(ethylsulfonyl)-2′-fluoro-6-methoxy-[1,1′-biphenyl]-3-yl)-7H-imidazo[4,5-c]pyridazine]
5.76	CCn1cnc2c(-c3ccc(OC)c(-c4ccc(S(=O)(=O)CC)cc4OC)c3)cnnc21 [Example 46, 7-Ethyl-4-(4′-(ethylsulfonyl)-2′,6-dimethoxy-[1,1′-biphenyl]-3-yl)-7H-imidazol[4,5-c]pyridazine]

Continued, molecule first:

Molecule	pKi
CCn1cnc2c(-c3ccc(F)c(-c4ccc(S(=O)(=O)C5CCC5)cc4OC)c3)cnnc21 [Example 6, 4-(4′-(Cyclobutylsulfonyl)-6-fluoro-2′-methoxy-[1,1-biphenyl]-3-yl)-7-ethyl-7H-imidazo[4,5-c]pyridazine]	8.02
CCn1cnc2c(-c3cccc(-c4ccc5c(c4)CCS5(=O)=O)c3)cnnc21 [Example 17, 4-[3-(1,1-dioxido-2,3-dihydro-1-benzothiophen-5-yl)phenyl]-7-ethyl-7H-imidazo[4,5-c]pyridazine]	6.99
COc1cc(S(=O)(=O)C(C)C)ccc1-c1cc(-c2cnnc3c2ncn3C2CC2)ccc1F [Example 23, 7-Cyclopropyl-4-(6-fluoro-4′-(isopropylsulfonyl)-2′-methoxy-[1,1′-biphenyl]-3-yl)-7H-imidazo[4,5-c]pyridazine]	7.39
CCS(=O)(=O)c1ccc(-c2cc(-c3cnnc4c3ncn4C3(C)CC3)ccc2F)cc1 [Example 27, 4-[4′-(Ethylsulfonyl)-6-fluorobiphenyl-3-yl]-7-(1-methylcyclopropyl)-7H-imidazo[4,5-c]pyridazine]	7.46
CCCn1cnc2c(-c3ccc(F)c(-c4ccc(S(=O)(=O)CC)cc4)c3)cnnc21 [Example 30, 4-[4′-(Ethylsulfonyl)-6-fluorobiphenyl-3-yl]-7-propyl-7H-imidazo[4,5-d]pyridazine]	6.92
CC(C)n1cnc2c(-c3ccc(F)c(-c4ccc(S(=O)(=O)C(C)C)cc4F)c3)cnnc21 [Example 36, 4-(2′,6-Difluoro-4′-(isopropylsulfonyl)-[1,1′-biphenyl]-3-yl)-7-isopropyl-7H-imidazo[4,5-c]pyridazine]	7.06
CCS(=O)(=O)c1ccc(-c2cc(-c3cnnc4c3ncn4C(C)C)ccc2F)c(OC)c1 [Example 40, 4-(4′-(Ethylsulfonyl)-6-fluoro-2′-methoxy-[1,1′-biphenyl]-3-yl)-7-isopropyl-7H-imidazo[4,5-c]pyridazine]	7.85

same assay, conditions: read-out: GABA-α2 Ki; competition with [3H]Ro-15-1788; HEK cell membranes; geometric mean of at least two replicates

pKi	Molecule
7.16	7-Ethyl-4-[4-fluoro-3-(2-methyl-1,1-dioxido-2,3-di hydro-1,2-benzisothiazol-5-yl)phenyl]-7H-imidazo[4,5-d]pyridazine [Example 50]
